For this experiment, the target named is T1, Mineralocorticoid receptor (Homo sapiens, UniProt P08235).
T1 sequence (P08235 whole entry): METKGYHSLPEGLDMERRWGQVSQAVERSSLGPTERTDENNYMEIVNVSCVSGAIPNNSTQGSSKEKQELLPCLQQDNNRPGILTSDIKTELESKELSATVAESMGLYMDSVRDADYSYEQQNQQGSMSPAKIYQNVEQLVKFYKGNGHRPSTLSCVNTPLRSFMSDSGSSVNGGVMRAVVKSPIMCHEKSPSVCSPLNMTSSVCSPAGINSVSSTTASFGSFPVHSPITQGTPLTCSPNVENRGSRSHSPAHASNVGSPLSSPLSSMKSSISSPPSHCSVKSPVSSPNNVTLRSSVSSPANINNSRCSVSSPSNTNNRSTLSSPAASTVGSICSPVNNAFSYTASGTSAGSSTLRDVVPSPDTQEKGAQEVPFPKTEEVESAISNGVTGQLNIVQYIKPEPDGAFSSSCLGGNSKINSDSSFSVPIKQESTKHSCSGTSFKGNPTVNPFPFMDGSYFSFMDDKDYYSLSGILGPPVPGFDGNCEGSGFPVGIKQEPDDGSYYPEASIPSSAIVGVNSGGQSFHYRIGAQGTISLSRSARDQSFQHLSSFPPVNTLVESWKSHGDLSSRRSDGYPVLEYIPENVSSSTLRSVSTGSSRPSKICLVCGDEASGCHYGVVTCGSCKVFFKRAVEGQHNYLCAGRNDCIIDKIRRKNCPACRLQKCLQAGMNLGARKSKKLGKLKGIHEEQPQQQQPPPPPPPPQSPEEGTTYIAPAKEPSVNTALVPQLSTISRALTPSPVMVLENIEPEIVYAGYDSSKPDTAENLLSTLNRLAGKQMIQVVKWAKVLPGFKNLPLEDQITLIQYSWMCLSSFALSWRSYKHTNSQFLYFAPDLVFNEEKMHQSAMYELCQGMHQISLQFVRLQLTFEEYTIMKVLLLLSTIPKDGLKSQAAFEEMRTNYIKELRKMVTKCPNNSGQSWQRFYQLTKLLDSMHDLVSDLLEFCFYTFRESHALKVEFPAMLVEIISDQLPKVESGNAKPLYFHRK
The experiment in a line: Antagonist activity at human mineralocorticoid receptor assessed as inhibition of binding to coactivator peptide by NH Pro assay.
Usually IC50 stands for the point on the concentration scale where inhibition reaches its midpoint. With `COc1cc(CNC(=O)[C@@]2(Cc3ccccc3)OC(=O)N(C(C)C)C2=O)cc(OC)c1`, the IC50 is 500 nM. Next, `COc1cccc(CNC(=O)[C@@]2(Cc3ccccc3)OC(=O)N(Cc3ccccc3)C2=O)c1`: 1000 nM; `C[C@H](c1ccccc1)N1C(=O)O[C@](Cc2ccccc2)(C(=O)Nc2cccc(F)c2)C1=O`: 300 nM. As for `C[C@H](c1ccccc1)N1C(=O)O[C@](Cc2ccccc2)(C(=O)Nc2ccc(F)cc2)C1=O`, the IC50 came out at 100 nM. Regarding `COc1cc(CNC(=O)[C@@]2(Cc3ccccc3)NC(=O)N(Cc3ccccc3)C2=O)cc(OC)c1`, the half-inhibitory concentration (IC50) is above 40000 nM.

Take `C[C@H](c1ccccc1)N1C(=O)O[C@](Cc2ccccc2)(C(=O)NCc2cccc3ccnn23)C1=O`: the IC50 was found to be 300 nM. `COc1cc(CNC(=O)[C@@]2(Cc3ccccc3)OC(=O)N(C3CCCc4ccccc43)C2=O)cc(OC)c1` (some centres undefined): the IC50 was 170 nM. On to `COc1cc(CNC(=O)C2(Cc3ccccc3)CC(=O)N([C@H](C)c3ccccc3)C2=O)cc(OC)c1` (some centres undefined), for which the IC50 was above 40000 nM. For `COc1cc(CNC(=O)[C@@]2(Cc3ccncc3)OC(=O)N(Cc3ccccc3)C2=O)cc(OC)c1` the value was 30000 nM. As to `C[C@H](c1ccccc1)N1C(=O)O[C@](Cc2ccccc2)(C(=O)NC2CCC2)C1=O`, the 50% inhibitory concentration (IC50) worked out at 1200 nM. For `COc1cc(CNC(=O)[C@@]2(Cc3ccc(F)cc3)OC(=O)N([C@H](C)c3ccccc3)C2=O)cc(OC)c1` the value was 200 nM; for `COc1cc(CNC(=O)[C@@]2(Cc3cccc4nonc34)OC(=O)N([C@H](C)c3ccccc3)C2=O)cc(OC)c1`, above 40000 nM. As for `C[C@H](c1ccccc1)N1C(=O)O[C@](Cc2ccccc2)(C(=O)NCc2ccccn2)C1=O`, the IC50 was found to be 16000 nM. For `Cc1cc(CNC(=O)[C@@]2(Cc3ccccc3)OC(=O)N([C@H](C)c3ccccc3)C2=O)on1` the value was 3000 nM. Take `C[C@H](c1ccccc1)N1C(=O)O[C@](Cc2ccccc2)(C(=O)NCc2ccc(C(F)(F)F)cc2)C1=O`: the IC50 worked out at 570 nM. Turning to `C[C@H](c1ccccc1)N1C(=O)O[C@](Cc2ccccc2)(C(=O)Nc2ccc3ccccc3c2)C1=O`, the IC50 turned out to be 600 nM. In the case of `O=C1O[C@](Cc2ccccc2)(C(=O)NCc2nccs2)C(=O)N1Cc1ccccc1`, the IC50 is above 40000 nM.

Turning to `CCn1cc(CNC(=O)[C@@]2(Cc3ccccc3)OC(=O)N([C@H](C)c3ccccc3)C2=O)cn1`, the IC50 was above 10000 nM. As to `COc1cc(CNC(=O)[C@@]2(Cc3ccccc3)OC(=O)N(Cc3ccccc3)C2=O)cc(OC)c1`, the IC50 stood at 3000 nM. As to `C[C@H](c1ccccc1)N1C(=O)O[C@](Cc2ccccc2)(C(=O)NCc2cccc(C(F)(F)F)c2)C1=O`, the IC50 came out at 500 nM.

With `C[C@H](c1ccccc1)N1C(=O)O[C@](Cc2ccccc2)(C(=O)NCCc2ccccn2)C1=O`, the IC50 amounted to 15000 nM. Consider `COc1cc(CNC(=O)[C@@]2(Cc3ccccc3)OC(=O)N([C@@H](C)c3ccccc3)C2=O)cc(OC)c1`, for which the IC50 came to 500 nM. As for `C[C@H](c1ccccc1)N1C(=O)O[C@](Cc2ccccc2)(C(=O)N[C@H](C)c2cccc(Cl)c2)C1=O`, the IC50 came to 400 nM.

For `C[C@H](c1ccccc1)N1C(=O)O[C@](Cc2ccccc2)(C(=O)NCc2cccc(S(C)(=O)=O)c2)C1=O`, the IC50 was 3000 nM.

With `COc1cc(CNC(=O)C2(Cc3ccccc3)CCN([C@H](C)c3ccccc3)C2=O)cc(OC)c1` (some centres undefined), the IC50 was above 10000 nM. For the molecule `COc1cc(CNC(=O)[C@@]2(Cc3ccccn3)OC(=O)N([C@H](C)c3ccccc3)C2=O)cc(OC)c1`, the IC50 turned out to be 3000 nM. Next, `C[C@H](c1ccccc1)N1C(=O)O[C@](Cc2ccccc2)(C(=O)Nc2ccc(C#N)cc2)C1=O`: 100 nM. Turning to `COc1cc(CNC(=O)[C@@]2(Cc3ccccc3)OC(=O)N([C@H](C)C3CCCCC3)C2=O)cc(OC)c1`, the IC50 is 14 nM.

Take `COc1cc(CNC(=O)C2(Cc3ccccc3)CN(Cc3ccccc3)C(=O)N2)cc(OC)c1` (centres undefined): the IC50 is above 40000 nM. In the case of `COc1ccccc1CNC(=O)[C@@]1(Cc2ccccc2)OC(=O)N([C@H](C)c2ccccc2)C1=O`, the IC50 is 500 nM.

Consider `COc1cc(CNC(=O)[C@@]2(Cc3ccc4ccccc4c3)OC(=O)N([C@H](C)c3ccccc3)C2=O)cc(OC)c1`, for which the IC50 was above 40000 nM. For `C[C@H](c1ccccc1)N1C(=O)O[C@](Cc2ccccc2)(C(=O)NCc2ccc(Cl)cc2)C1=O`, the IC50 amounted to 200 nM.

Take `COc1cc(CNC(=O)[C@]2(Cc3ccccc3)C(=O)N(Cc3ccccc3)C(=O)N2C)cc(OC)c1`: the IC50 is above 40000 nM. As for `C[C@H](c1ccccc1)N1C(=O)O[C@](Cc2ccccc2)(C(=O)NCCc2nnc[nH]2)C1=O`, the IC50 was above 40000 nM. For `COc1cc(CNC(=O)[C@@]2(Cc3ccccc3Cl)OC(=O)N([C@H](C)c3ccccc3)C2=O)cc(OC)c1`, the IC50 was 450 nM. Next, `COc1cc(CNC(=O)[C@@]2(Cc3ccccc3)OC(=O)N([C@H](C)c3ccc(F)cc3)C2=O)cc(OC)c1`: 37 nM; `C[C@H](c1ccccc1)N1C(=O)N[C@](Cc2ccccc2)(C(=O)N2CCc3ccccc3C2)C1=O`: 990 nM; `C[C@H](c1ccccc1)N1C(=O)O[C@](Cc2ccccc2)(C(=O)NCCc2cn[nH]c2)C1=O`: above 40000 nM.

Regarding `COc1cc(CNC(=O)[C@H]2OC(=O)N(Cc3ccccc3)C2=O)cc(OC)c1`, the IC50 is above 40000 nM.

As to `C[C@H](c1ccccc1)N1C(=O)O[C@](Cc2ccccc2)(C(=O)NC2CC2)C1=O`, the IC50 is 2000 nM. As for `COc1cc(CNC(=O)C2(Cc3ccccc3)CN(Cc3ccccc3)C(=O)O2)cc(OC)c1` (centres undefined), the IC50 was above 40000 nM. Take `COc1cc(CNC(=O)[C@@]2(Cc3ccccc3)OC(=O)N(C3CCN(C(=O)C(F)(F)F)CC3)C2=O)cc(OC)c1`: the IC50 worked out at 2900 nM. Turning to `COc1cc(CNC(=O)[C@@]2(Cc3cccc(Cl)c3)OC(=O)N([C@H](C)c3ccccc3)C2=O)cc(OC)c1`, the IC50 was 750 nM. Regarding `C[C@H](c1ccccc1)N1C(=O)O[C@](Cc2ccccc2)(C(=O)NCc2ccc3ccccc3n2)C1=O`, the IC50 came out at 2500 nM. Next, `C[C@H](c1ccccc1)N1C(=O)O[C@](Cc2ccccc2)(C(=O)NCc2ccc3cnccc3c2)C1=O`: 1500 nM; `COc1cc(CNC(=O)[C@@]2(Cc3ccccc3F)OC(=O)N([C@H](C)c3ccccc3)C2=O)cc(OC)c1`: 300 nM; `C[C@H](c1ccccc1)N1C(=O)O[C@](Cc2ccccc2)(C(=O)N[C@H]2C[C@@H](c3ccccc3)C2)C1=O`: 650 nM. Take `C[C@H](c1ccccc1)N1C(=O)O[C@](Cc2ccccc2)(C(=O)N[C@H]2C[C@H](c3ccccc3)C2)C1=O`: the IC50 turned out to be 190 nM. As for `COc1cc(CNC(=O)[C@@]2(Cc3cccc(F)c3)OC(=O)N([C@H](C)c3ccccc3)C2=O)cc(OC)c1`, the IC50 is 280 nM.

On to `COc1cc(CNC(=O)[C@@]2(Cc3ccc(Cl)cc3)OC(=O)N([C@H](C)c3ccccc3)C2=O)cc(OC)c1`, for which the IC50 was above 40000 nM. For `C[C@H](c1ccccc1)N1C(=O)O[C@](Cc2ccccc2)(C(=O)NCc2ccc(S(C)(=O)=O)cc2)C1=O`, the IC50 was above 10000 nM. `C[C@H](c1ccccc1)N1C(=O)O[C@](Cc2ccccc2)(C(=O)Nc2ccccc2Cl)C1=O`: the IC50 was found to be 1000 nM. For `C[C@H](c1ccc(F)cc1)N1C(=O)O[C@](Cc2ccccc2)(C(=O)Nc2ccccc2)C1=O`, the IC50 was found to be 270 nM. Consider `COc1cc(CNC(=O)[C@@]2(Cc3ccccc3)OC(=O)N([C@H](C)c3ccc(Cl)cc3)C2=O)cc(OC)c1`, for which the IC50 is 55 nM.

These data come from ChEMBL document CHEMBL2407028, “Discovery of novel oxazolidinedione derivatives as potent and selective mineralocorticoid receptor antagonists” (Bioorg Med Chem Lett, 2013).
